Source: the supplement of paper PMC10307832

Experiments:
Test in all cases: relative viability (nuclei count vs DMSO), 5 days (fraction); higher = more cells survive
[1] = test system: LC-2-ad
Outline: (§1)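 Relative viability divides the nuclei count in treated wells by that in vehicle wells. Lung cancer cell lines were seeded in 1536-well plates, dosed by pin tool the next day, and fixed and stained after 5 days in one step with final 0.05% Triton X-100, 1% formaldehyde and 1 ug/ml Hoechst. Dosing was a single drug or a fixed anchor-drug dose plus five library-drug doses (not always all listed) in √10 steps, and values are medians of duplicate plates imaged at 4×.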

[2] = test system: NCI-H2126
Outline: as §1

[3] = test system: LCLC-103H
Outline: as §1

[4] = test system: NCI-H1793
Outline: as §1

[5] = test system: NCI-H1648
Outline: as §1

[6] = test system: NCI-H2023
Outline: as §1

[7] = test system: NCI-H1395
Outline: as §1

[8] = test system: SW 900
Outline: as §1

[9] = test system: NCI-H1651
Outline: as §1

[10] = test system: EMC-BAC-2
Outline: as §1

[11] = test system: PC-14
Outline: as §1

[12] = test system: H3255
Outline: as §1

[13] = test system: RERF-LC-KJ
Outline: as §1

[14] = test system: NCI-H2009
Outline: as §1

[15] = test system: NCI-H661
Outline: as §1

[16] = test system: UMC-11
Outline: as §1

[17] = test system: COR-L 105
Outline: as §1

[18] = test system: ABC-1
Outline: as §1

[19] = test system: NCI-H1755
Outline: as §1

[20] = test system: EKVX
Outline: as §1

[21] = test system: CAL-12T
Outline: as §1

[22] = test system: NCI-H2087
Outline: as §1

For `C=C1C(=O)O[C@@H](CCCCCCCC)[C@@H]1C(=O)O` [C-75] + CC(=O)c1c(C)c2cnc(Nc3ccc(N4CCNCC4)cn3)nc2n(C2CCCC2)c1=O [Palbociclib] (partner 0.5 µM), the relative viability ([1]; first compound 0.08 µM) was 0.555, the relative viability ([1]; first compound 0.253 µM) was 0.474 and the relative viability ([1]; first compound 0.8 µM) was 0.471. It also gave a relative viability ([1]; first compound 2.53 µM) of 0.381, a relative viability ([1]; first compound 8 µM) of 0.482 and a relative viability ([2]; first compound 0.08 µM) of 0.348. It also gave a relative viability ([2]; first compound 0.253 µM) of 0.35, a relative viability ([2]; first compound 0.8 µM) of 0.335 and a relative viability ([2]; first compound 2.53 µM) of 0.349. For the same compound, the relative viability ([2]; first compound 8 µM) was 0.339, the relative viability ([3]; first compound 0.08 µM) was 0.447 and the relative viability ([3]; first compound 0.253 µM) was 0.428. It also gave a relative viability ([3]; first compound 0.8 µM) of 0.499, a relative viability ([3]; first compound 2.53 µM) of 0.353 and a relative viability ([3]; first compound 8 µM) of 0.451. The relative viability ([4]; first compound 0.08 µM) was 0.278, the relative viability ([4]; first compound 0.253 µM) was 0.311 and the relative viability ([4]; first compound 2.53 µM) was 0.267. It also gave a relative viability ([4]; first compound 8 µM) of 0.306, a relative viability ([5]; first compound 0.08 µM) of 0.251 and a relative viability ([5]; first compound 0.253 µM) of 0.398. The relative viability ([5]; first compound 0.8 µM) was 0.292, the relative viability ([5]; first compound 8 µM) was 0.295 and the relative viability ([6]; first compound 0.08 µM) was 0.395. For the same compound, the relative viability ([6]; first compound 0.253 µM) was 0.449, the relative viability ([6]; first compound 0.8 µM) was 0.358 and the relative viability ([6]; first compound 2.53 µM) was 0.244. The relative viability ([6]; first compound 8 µM) was 0.276, the relative viability ([7]; first compound 0.08 µM) was 0.586 and the relative viability ([7]; first compound 0.253 µM) was 0.584. For the same compound, the relative viability ([7]; first compound 2.53 µM) was 0.588, the relative viability ([7]; first compound 8 µM) was 0.597 and the relative viability ([8]; first compound 0.08 µM) was 0.49. For the same compound, the relative viability ([8]; first compound 0.253 µM) was 0.647, the relative viability ([8]; first compound 0.8 µM) was 0.601 and the relative viability ([8]; first compound 2.53 µM) was 0.594. It also gave a relative viability ([8]; first compound 8 µM) of 0.607, a relative viability ([9]; first compound 0.08 µM) of 0.509 and a relative viability ([9]; first compound 0.253 µM) of 0.521. For the same compound, the relative viability ([9]; first compound 0.8 µM) was 0.521, the relative viability ([9]; first compound 2.53 µM) was 0.476 and the relative viability ([9]; first compound 8 µM) was 0.55. The relative viability ([10]; first compound 0.08 µM) was 0.522, the relative viability ([10]; first compound 0.253 µM) was 0.505 and the relative viability ([10]; first compound 0.8 µM) was 0.515. For the same compound, the relative viability ([10]; first compound 2.53 µM) was 0.438, the relative viability ([10]; first compound 8 µM) was 0.521 and the relative viability ([11]; first compound 0.08 µM) was 0.54. The relative viability ([11]; first compound 0.253 µM) was 0.546, the relative viability ([11]; first compound 0.8 µM) was 0.504 and the relative viability ([11]; first compound 2.53 µM) was 0.453. It also gave a relative viability ([11]; first compound 8 µM) of 0.445, a relative viability ([12]; first compound 0.08 µM) of 0.319 and a relative viability ([12]; first compound 0.253 µM) of 0.28. It also gave a relative viability ([12]; first compound 0.8 µM) of 0.323, a relative viability ([12]; first compound 2.53 µM) of 0.281 and a relative viability ([12]; first compound 8 µM) of 0.329. For the same compound, the relative viability ([13]; first compound 0.08 µM) was 1.06, the relative viability ([13]; first compound 0.253 µM) was 1.12 and the relative viability ([13]; first compound 0.8 µM) was 1.07. For the same compound, the relative viability ([13]; first compound 2.53 µM) was 1.03, the relative viability ([13]; first compound 8 µM) was 1.15 and the relative viability ([14]; first compound 0.08 µM) was 0.24. It also gave a relative viability ([14]; first compound 0.253 µM) of 0.192, a relative viability ([14]; first compound 0.8 µM) of 0.19 and a relative viability ([14]; first compound 2.53 µM) of 0.171. It also gave a relative viability ([14]; first compound 8 µM) of 0.216, a relative viability ([15]; first compound 0.08 µM) of 0.429 and a relative viability ([15]; first compound 0.253 µM) of 0.41. For the same compound, the relative viability ([15]; first compound 0.8 µM) was 0.378, the relative viability ([15]; first compound 2.53 µM) was 0.374 and the relative viability ([15]; first compound 8 µM) was 0.394. It also gave a relative viability ([16]; first compound 0.08 µM) of 0.308, a relative viability ([16]; first compound 0.253 µM) of 0.315 and a relative viability ([16]; first compound 0.8 µM) of 0.321. For the same compound, the relative viability ([16]; first compound 2.53 µM) was 0.351, the relative viability ([16]; first compound 8 µM) was 0.268 and the relative viability ([17]; first compound 0.08 µM) was 0.417. The relative viability ([17]; first compound 0.253 µM) was 0.41, the relative viability ([17]; first compound 0.8 µM) was 0.358 and the relative viability ([17]; first compound 2.53 µM) was 0.303. For the same compound, the relative viability ([17]; first compound 8 µM) was 0.39, the relative viability ([18]; first compound 0.08 µM) was 0.711 and the relative viability ([18]; first compound 0.253 µM) was 0.935. It also gave a relative viability ([18]; first compound 0.8 µM) of 0.559, a relative viability ([18]; first compound 2.53 µM) of 0.494 and a relative viability ([18]; first compound 8 µM) of 0.494. For the same compound, the relative viability ([19]; first compound 0.08 µM) was 0.417, the relative viability ([19]; first compound 0.253 µM) was 0.428 and the relative viability ([19]; first compound 0.8 µM) was 0.42. For the same compound, the relative viability ([19]; first compound 2.53 µM) was 0.378, the relative viability ([19]; first compound 8 µM) was 0.408 and the relative viability ([20]; first compound 0.08 µM) was 0.4. It also gave a relative viability ([20]; first compound 0.253 µM) of 0.307, a relative viability ([20]; first compound 0.8 µM) of 0.383 and a relative viability ([20]; first compound 8 µM) of 0.425. It also gave a relative viability ([21]; first compound 0.08 µM) of 0.531, a relative viability ([21]; first compound 0.253 µM) of 0.533 and a relative viability ([21]; first compound 0.8 µM) of 0.452. For the same compound, the relative viability ([21]; first compound 2.53 µM) was 0.458, the relative viability ([21]; first compound 8 µM) was 0.449 and the relative viability ([22]; first compound 0.08 µM) was 0.239. The relative viability ([22]; first compound 0.253 µM) was 0.232, the relative viability ([22]; first compound 0.8 µM) was 0.239 and the relative viability ([22]; first compound 2.53 µM) was 0.209. The relative viability ([22]; first compound 8 µM) was 0.217.
